Laboratory results published in patent US4895856A, “Derivatives of 5-pentylamino-5-oxopentanoic and 4-pentylamino-4-oxobutanoic acids with antagonistic activity towards cholecystokinin” (Rotta Research Laboratorium S.p.A., priority 1986, dated 1990).
Where two headings read alike, the source gives them in different places.

What was measured:
gallbladder = experiment: Antispastic activity on the gallbladder in mice (egg yolk-induced emptying); assay type: in vivo; conditions: for % inhibition of the emptying of the gallbladder: egg yolk; for ED50: Mus musculus, ip, read-out: ID50 (antispastic activity on contraction of the gallbladder induced by egg yolk)
Experimental: (§1) Emptying of the gall bladder was induced by a single oral administration of 1 ml of a 30% suspension (weight/volume) of lyophylised egg yolk in a physiological solution.
(§2) As stated above once it has been absorbed egg yoke induces a release of endogenous CCK.
(§3) The antagonistic compounds were administered intraperitoneally (i.p.) 15 minutes before the contractant.
(§4) The % antispastic activity for each dose was calculated from the following formula: [formula] where P1 =the average weight of the gallbladders of the group of animals treated with the drug plus the contractant.
(§5) P2 =the average weight of the gallbladders of the group of animals treated with the contractant only.
(§6) P3 --the average weight of the gallbladders of the control group of animals.
(§7) The results obtained are given in Table 5 where the effects obtained are expressed as the ID50.

pyloric sphincter = experiment: Antispastic activity on pyloric contraction induced by CCK in rats; assay type: in vivo; conditions: for % inhibition of the pyloric contraction: CCK 8 mcg/kg i.p.; for ED50: Rattus norvegicus, ip, i.p. 15 minutes before CCK 8 mcg/kg i.p., read-out: ID50 (antispastic activity on the pyloric contraction induced by CCK)
Experimental: A dose of 8 mcg/kg i.p. of CCK was used, which induced a sub-maximal contraction of the pylorus. The antagonistic compounds were administered (i.p.) 15 minutes before the contractant. 10 minutes after administration of the contractant, the animals were treated per os with 25 ml/kg of H2 O. 5 minutes after the administration the animals were killed, their stomachs removed and the gastric content measured by removal with a syringe.
The % antispastic activity for each dose administered was calculated from the following formula: [formula] where V1 =the volume of gastric content of the group of animals treated with the drug plus the contractant.
V2 =the volume of gastric content of the group of animals treated with the contractant only.
V3 =the volume of gastric content of the control group of animals.
Various doses of the compounds were tested so as to enable the calculation of an ID50 value, that is the dose (in mg/kg i.p.) which is able to inhibit the contractant effect of CCK by 50%.
The results obtained are given in Table 6 where the effects obtained are expressed as the ID50.

pancreas = experiment: Protective activity in experimental pancreatitis induced by sodium taurocholate in rats; assay type: in vivo; conditions: for ED50: Rattus norvegicus, ip, taurocholate pancreatitis
Experimental: The method described by Aho et al. (Scandinavian J. Gastroenterology 15 (1980), 411-16) was followed.
Male rats weighing approximately 250 g were subjected to laparotomy and the pancreas exposed. 0.3 ml of a 6% solution of sodium taurocholate were injected directly into the pancreatic tissue.
The products under examination were administered intraperitoneally (i.p.) 30 minutes before the operation and 3 hours after the operation.
6 hours after the laparotomy, blood was taken from the retro-orbital plexus after anaesthesia with ether, the animals were killed and the pancreas was removed and weighed. The activity of the serum amylase was determined by the Ceska method (Clin. Chim. Acta 26 (1969), 437-444).
The compounds were tested at various doses so as to enable the calculation of an ID50 value, that is the dose (in mg/kg i.p.) which is able to inhibit the toxic effect of the sodium taurocholate by 50%, expressed both as a % inhibition of the increase in weight of the pancreas and as a % inhibition of the increase in serum amylase.

[1] = Antispastic activity on the gallbladder in mice (egg yolk-induced emptying); assay type: in vivo; conditions: mouse, in vivo, ip, 75 mg/kg, read-out: death of the animals treated
Experimental: as §1, §2, §3, §4, §5, §6, §7

[2] = biological target: T1, cholecystokinin receptors of ox gallbladder membranes (Bos taurus, UniProt A6QLH2); experiment: Inhibition of binding of (125-I)-Bolton Hunter-CCK-8 to ox gallbladder membranes; conditions: 2 h at 25° C., pH 7.4, read-out: IC50 (displacement of 50% of the (125-I)-CCK-8 from the receptors)
T1 sequence (A6QLH2 1-427): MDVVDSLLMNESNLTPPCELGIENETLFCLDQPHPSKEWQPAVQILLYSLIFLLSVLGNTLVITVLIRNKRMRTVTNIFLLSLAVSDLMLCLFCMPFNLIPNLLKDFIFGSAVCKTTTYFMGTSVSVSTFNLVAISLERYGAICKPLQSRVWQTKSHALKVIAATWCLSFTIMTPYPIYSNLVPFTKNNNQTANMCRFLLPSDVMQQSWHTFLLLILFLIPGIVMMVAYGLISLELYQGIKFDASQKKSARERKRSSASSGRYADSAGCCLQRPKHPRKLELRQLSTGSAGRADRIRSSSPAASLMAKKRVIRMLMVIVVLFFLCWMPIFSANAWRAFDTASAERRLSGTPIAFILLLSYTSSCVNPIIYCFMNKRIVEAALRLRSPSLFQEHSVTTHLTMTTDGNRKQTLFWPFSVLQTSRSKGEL
Experimental: The capacity of some compounds of the invention to inhibit the binding of (125-I)-Bolton Hunter-CCK-8 to the cholecystokinin receptors of ox gallbladder membranes was evaluated by comparison with the displacement induced by cold (unmarked) CCK.
The ox gallbladder cell membranes were prepared by homogenisation with Tris buffer (pH 7.4) and centrifuging of the homogenate at 50,000 gravity for 10 minutes. The membranes were then incubated together with the radioactive tracer and the compounds under study for 2 h at 25° C.
After the supernatant liquid had been discarded, the radioactivity associated with the pellet was determined with a liquid scintillator. The specific binding was determined as the difference between the binding in the absence and in the presence of 10^-6 M CCK-8.

[3] = i.p. 15 minutes before the contractant
[4] = read-out: ID50, inhibition of pancreas weight increase
[5] = read-out: ID50, inhibition of serum amylase increase

| Compound | % inhibition of the emptying of the gallbladder (gallbladder; 0.1 mg/kg i.p.) [%] | % inhibition of the emptying of the gallbladder (gallbladder; 0.3 mg/kg i.p.) [%] | ED50 (gallbladder; [3]) [mg/kg] | % inhibition of the pyloric contraction (pyloric sphincter; 0.03 mg/kg i.p.) [%] | % inhibition of the pyloric contraction (pyloric sphincter; 0.1 mg/kg i.p.) [%] | % inhibition of the pyloric contraction (pyloric sphincter; 0.3 mg/kg i.p.) [%] | ED50 (pyloric sphincter) [mg/kg] | % inhibition amylase increase (pancreas; 3 mg/kg i.p. + taurocholate) [%] | % inhibition weight increase (pancreas) (pancreas; 3 mg/kg i.p. + taurocholate) [%] | % ratio pancreas weight / animal weight (pancreas; 3 mg/kg i.p. + taurocholate) [%] | amylase in the serum (pancreas; 3 mg/kg i.p. + taurocholate) [U/ml] | % inhibition amylase increase (pancreas; 10 mg/kg i.p. + taurocholate) [%] | % inhibition weight increase (pancreas) (pancreas; 10 mg/kg i.p. + taurocholate) [%] | % ratio pancreas weight / animal weight (pancreas; 10 mg/kg i.p. + taurocholate) [%] | amylase in the serum (pancreas; 10 mg/kg i.p. + taurocholate) [U/ml] | ED50 (pancreas; [4]) [mg/kg] | ED50 (pancreas; [5]) [mg/kg] | % inhibition of the emptying of the gallbladder (gallbladder; 1.0 mg/kg i.p.) [%] | % inhibition of the pyloric contraction (pyloric sphincter; 1.0 mg/kg i.p.) [%] | also measured |
| --- | --- | --- | --- | --- | --- | --- | --- | --- | --- | --- | --- | --- | --- | --- | --- | --- | --- | --- | --- | --- |
| CCCCCN(CCCCC)C(=O)C(CCC(=O)O)NC(=O)c1ccc2ccccc2c1 (racemic) [Compound 19, D,L-4-(2-naphthoylamino)-5-(di-n-pentylamino)-5-oxopentanoicacid] | 41.2 | 83.7 | 0.11 | 28.7 | 70.7 | 95.5 | 0.05 | 76.7 | 73.3 | 0.43 | 10.0 | 90.7 | 93.3 | 0.40 | 8.8 | 1.7 | 1.1 | – | – | % inhibition of the emptying of the gallbladder (gallbladder; 0.03 mg/kg i.p.): 12.1%; contraction of the gallbladder induced by the egg yolk (in words) (gallbladder; 0.3 mg/kg): almost completely blocks the contraction; % inhibition of the pyloric contraction (pyloric sphincter; 0.01 mg/kg i.p.): 17.3%; % inhibition amylase increase (pancreas; 1 mg/kg i.p. + taurocholate): 45.3%; % inhibition weight increase (pancreas) (pancreas; 1 mg/kg i.p. + taurocholate): 33.3%; % ratio pancreas weight / animal weight (pancreas; 1 mg/kg i.p. + taurocholate): 0.49%; amylase in the serum (pancreas; 1 mg/kg i.p. + taurocholate): 12.7 U/ml; ED50 (pancreas; read-out: dose inhibiting the weight increase of the pancreas and the serum amylase increase by 50%): ~1.5 mg/kg |
| COc1ccc(Cc2nccc3cc(OC)c(OC)cc23)cc1OC [PAPAVERINE, papaverine, reference compound] | – | – | – | – | – | – | – | – | – | – | – | – | – | – | – | – | – | – | – | mortality [1]: 20%; % inhibition of the emptying of the gallbladder (gallbladder; 25 mg/kg i.p.): 0%; % inhibition of the emptying of the gallbladder (gallbladder; 50 mg/kg i.p.): 0%; % inhibition of the emptying of the gallbladder (gallbladder; 75 mg/kg i.p.): 26.1%; ID50 (antispastic activity on contraction of the gallbladder induced by egg yolk) (gallbladder; [3]): INACTIVE; antispastic activity on the gallbladder (in words) (gallbladder; only at the toxic dose of 75 mg/kg): slightly active |
| CCK-8: cold (unmarked) CCK; cholecystokinin | – | – | – | – | – | – | – | – | – | – | – | – | – | – | – | – | – | – | – | IC50 [2]: 0.2 nM |
| CCCCCN(CCCOC)C(=O)C(CCC(=O)O)NC(=O)c1ccc2ccccc2c1 (stereo not shown) [Compound 28] | 16.5 | 36.2 | 0.62 | 12.5 | 29.2 | 46.7 | 0.3 | 45.0 | 29.2 | 0.52 | 11.0 | 68.3 | 50.0 | 0.47 | 9.6 | 9.2 | 4.1 | 58.8 | 73.0 | % inhibition amylase increase (pancreas; 20 mg/kg i.p. + taurocholate): 88.3%; % inhibition weight increase (pancreas) (pancreas; 20 mg/kg i.p. + taurocholate): 66.6%; % ratio pancreas weight / animal weight (pancreas; 20 mg/kg i.p. + taurocholate): 0.43%; amylase in the serum (pancreas; 20 mg/kg i.p. + taurocholate): 8.4 U/ml |
| CCCCCN(CCCCC)C(=O)C(CC(=O)O)NC(=O)c1ccc2ccccc2c1 (stereo not shown) [Compound 26] | 17.0 | 30.8 | 0.53 | 24.8 | 50.0 | 57.7 | 0.14 | – | – | – | – | – | – | – | – | – | – | 66.7 | 78.9 | – |
